Reference: ChEMBL document CHEMBL4507322, “Data for DCP probe (R)-ZINC-3573” (2021)

What was measured:
[1] = biological target: T1, Sodium-dependent dopamine transporter (Homo sapiens, UniProt Q01959); settings: Compound concentration 10.0 uM
[2] = biological target: T2, GABA-A receptor; anion channel (Rattus norvegicus) (UniProt O09028+P15431+P18506+P18508+P19969+P20236+P23574+P23576+P28471+P28473+P30191+P62813+P63079+P63138+Q91ZM7+Q9ES14); settings: Compound concentration 10.0 uM
[3] = biological target: 5-hydroxytryptamine receptor 2C (Homo sapiens) (UniProt P28335); settings: Compound concentration 10.0 uM
[4] = biological target: D(3) dopamine receptor (Homo sapiens) (UniProt P35462); settings: Compound concentration 10.0 uM
[5] = biological target: Histamine H2 receptor (Homo sapiens) (UniProt P25021); settings: Compound concentration 10.0 uM
[6] = biological target: Beta-1 adrenergic receptor (Homo sapiens) (UniProt P08588); settings: Compound concentration 10.0 uM
[7] = biological target: T3, 5-hydroxytryptamine receptor 6 (Homo sapiens, UniProt P50406); assay: GPCRScan assay: inhibition of 5-HT6; design: radioligand conc. used [nm] 2.0 – 4.0, parental cells stable HEK
[8] = biological target: Alpha-2B adrenergic receptor (Homo sapiens) (UniProt P18089); settings: Compound concentration 10.0 uM
[9] = biological target: 5-hydroxytryptamine receptor 7 (Homo sapiens) (UniProt P34969); settings: Compound concentration 10.0 uM
[10] = biological target: Muscarinic acetylcholine receptor M4 (Homo sapiens) (UniProt P08173); settings: Compound concentration 10.0 uM
[11] = biological target: T4, 5-hydroxytryptamine receptor 3A (Homo sapiens, UniProt P46098); assay: GPCRScan assay: inhibition of 5-HT3; design: radioligand conc. used [nm] 1.0 – 2.0, parental cells HEKT
T4 sequence (P46098 whole entry): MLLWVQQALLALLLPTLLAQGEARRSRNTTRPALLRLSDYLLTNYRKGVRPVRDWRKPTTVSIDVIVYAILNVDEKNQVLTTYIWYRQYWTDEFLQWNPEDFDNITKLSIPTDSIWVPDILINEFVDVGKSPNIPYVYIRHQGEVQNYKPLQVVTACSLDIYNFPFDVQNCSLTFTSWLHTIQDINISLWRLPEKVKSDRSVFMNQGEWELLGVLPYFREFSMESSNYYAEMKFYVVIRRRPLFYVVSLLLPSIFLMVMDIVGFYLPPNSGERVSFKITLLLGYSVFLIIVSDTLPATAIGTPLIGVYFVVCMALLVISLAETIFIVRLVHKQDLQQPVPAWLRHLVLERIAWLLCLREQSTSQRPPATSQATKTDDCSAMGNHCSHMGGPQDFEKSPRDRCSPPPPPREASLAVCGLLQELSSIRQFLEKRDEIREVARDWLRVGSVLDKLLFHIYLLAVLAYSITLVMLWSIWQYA

[12] = biological target: Delta-type opioid receptor (Homo sapiens) (UniProt P41143); settings: Compound concentration 10.0 uM
[13] = biological target: 5-hydroxytryptamine receptor 2B (Homo sapiens) (UniProt P41595); settings: Compound concentration 10.0 uM
[14] = biological target: Alpha-1D adrenergic receptor (Homo sapiens) (UniProt P25100); settings: Compound concentration 10.0 uM
[15] = biological target: Histamine H1 receptor (Homo sapiens) (UniProt P35367); settings: Compound concentration 10.0 uM
[16] = biological target: T5, Sigma intracellular receptor 2 (Homo sapiens, UniProt Q5BJF2); assay: GPCRScan assay: inhibition of Sigma 2; design: radioligand conc. used [nm] 5.0, parental cells HEKT
[17] = biological target: D(4) dopamine receptor (Homo sapiens) (UniProt P21917); settings: Compound concentration 10.0 uM
[18] = biological target: 5-hydroxytryptamine receptor 5A (Homo sapiens) (UniProt P47898); settings: Compound concentration 10.0 uM
[19] = biological target: Muscarinic acetylcholine receptor M1 (Homo sapiens) (UniProt P11229); settings: Compound concentration 10.0 uM
[20] = biological target: Mu-type opioid receptor (Homo sapiens) (UniProt P35372); settings: Compound concentration 10.0 uM
[21] = biological target: T2, GABA-A receptor; anion channel (Rattus norvegicus); settings: Compound concentration 10.0 uM; remark: listed apart in the source
[22] = biological target: Muscarinic acetylcholine receptor M5 (Homo sapiens) (UniProt P08912); settings: Compound concentration 10.0 uM
[23] = biological target: Alpha-1B adrenergic receptor (Homo sapiens) (UniProt P35368); settings: Compound concentration 10.0 uM
[24] = biological target: Alpha-1A adrenergic receptor (Homo sapiens) (UniProt P35348); settings: Compound concentration 10.0 uM
[25] = biological target: 5-hydroxytryptamine receptor 3A (Homo sapiens) (UniProt P46098); settings: Compound concentration 10.0 uM
[26] = biological target: Histamine H3 receptor (Homo sapiens) (UniProt Q9Y5N1); settings: Compound concentration 10.0 uM
[27] = biological target: Histamine H4 receptor (Homo sapiens) (UniProt Q9H3N8); settings: Compound concentration 10.0 uM
D(2) dopamine receptor [28] = biological target: T6, D(2) dopamine receptor (Homo sapiens, UniProt P14416); assay: GPCRScan assay: inhibition of D2; design: radioligand conc. used [nm] 0.4 – 1.0, parental cells stable fibroblast
D(2) dopamine receptor [29] = biological target: T6, D(2) dopamine receptor; settings: Compound concentration 10.0 uM
[30] = biological target: GABA-A receptor; anion channel; assay: GPCRScan assay: inhibition of GABAA/BZP; format: protein-complex assay, Rattus norvegicus; design: radioligand conc. used [nm] 0.6 – 4.0, parental cells brain tissue
[31] = biological target: 5-hydroxytryptamine receptor 1A (Homo sapiens, UniProt P08908); assay: GPCRScan assay: inhibition of 5-HT1A; design: radioligand conc. used [nm] 0.5 – 1.0, parental cells stable CHO
[32] = biological target: T7, 5-hydroxytryptamine receptor 1D (Homo sapiens, UniProt P28221); settings: Compound concentration 10.0 uM
[33] = biological target: T8, 5-hydroxytryptamine receptor 1B (Homo sapiens, UniProt P28222); assay: GPCRScan assay: inhibition of 5-HT1B; design: radioligand conc. used [nm] 0.6 – 1.5, parental cells stable HEK
[34] = biological target: Sigma non-opioid intracellular receptor 1 (Homo sapiens) (UniProt Q99720); settings: Compound concentration 10.0 uM
[35] = biological target: 5-hydroxytryptamine receptor 1A (Homo sapiens) (UniProt P08908); settings: Compound concentration 10.0 uM
Rattus norvegicus = species: Rattus norvegicus; settings: Compound concentration 10.0 uM
[36] = biological target: 5-hydroxytryptamine receptor 2A (Homo sapiens) (UniProt P28223); settings: Compound concentration 10.0 uM
[37] = biological target: Muscarinic acetylcholine receptor M2 (Homo sapiens) (UniProt P08172); settings: Compound concentration 10.0 uM
[38] = biological target: Muscarinic acetylcholine receptor M3 (Homo sapiens) (UniProt P20309); settings: Compound concentration 10.0 uM
[39] = biological target: T7, 5-hydroxytryptamine receptor 1D; assay: GPCRScan assay: inhibition of 5-HT1D; design: radioligand conc. used [nm] 1.0 – 2.0, parental cells HEKT
[40] = biological target: D(1B) dopamine receptor (Homo sapiens) (UniProt P21918); settings: Compound concentration 10.0 uM
[41] = biological target: Alpha-2C adrenergic receptor (Homo sapiens) (UniProt P18825); settings: Compound concentration 10.0 uM
[42] = biological target: Beta-2 adrenergic receptor (Homo sapiens) (UniProt P07550); settings: Compound concentration 10.0 uM
[43] = biological target: Beta-3 adrenergic receptor (Homo sapiens) (UniProt P13945); settings: Compound concentration 10.0 uM
[44] = biological target: Sodium-dependent noradrenaline transporter (Homo sapiens) (UniProt P23975); settings: Compound concentration 10.0 uM
[45] = biological target: T8, 5-hydroxytryptamine receptor 1B; settings: Compound concentration 10.0 uM
[46] = biological target: Kappa-type opioid receptor (Homo sapiens) (UniProt P41145); settings: Compound concentration 10.0 uM
[47] = biological target: D(1A) dopamine receptor (Homo sapiens) (UniProt P21728); settings: Compound concentration 10.0 uM
[48] = biological target: 5-hydroxytryptamine receptor 1E (Homo sapiens) (UniProt P28566); settings: Compound concentration 10.0 uM
[49] = biological target: T3, 5-hydroxytryptamine receptor 6; settings: Compound concentration 10.0 uM
[50] = biological target: Alpha-2A adrenergic receptor (Homo sapiens) (UniProt P08913); settings: Compound concentration 10.0 uM
[51] = biological target: T5, Sigma intracellular receptor 2; settings: Compound concentration 10.0 uM
[52] = biological target: Sodium-dependent serotonin transporter (Homo sapiens) (UniProt P31645); settings: Compound concentration 10.0 uM
[53] = biological target: T1, Sodium-dependent dopamine transporter; assay: GPCRScan assay: inhibition of DAT; design: radioligand conc. used [nm] 3.6 – 16.0, parental cells stable HEK
[54] = biological target: T9, Mas-related G-protein coupled receptor member X2 (Homo sapiens, UniProt Q96LB1); assay: PRESTO-Tango concentration response assay
[55] = biological target: T9, Mas-related G-protein coupled receptor member X2; assay: FLIPR assay
[56] = biological target: Alpha-1B adrenergic receptor (Homo sapiens, UniProt P35368); assay: GPCRScan assay: inhibition of Alpha1B; design: radioligand conc. used [nm] 0.3 – 1.0, parental cells stable HEK

T7 sequence (P28221 whole entry): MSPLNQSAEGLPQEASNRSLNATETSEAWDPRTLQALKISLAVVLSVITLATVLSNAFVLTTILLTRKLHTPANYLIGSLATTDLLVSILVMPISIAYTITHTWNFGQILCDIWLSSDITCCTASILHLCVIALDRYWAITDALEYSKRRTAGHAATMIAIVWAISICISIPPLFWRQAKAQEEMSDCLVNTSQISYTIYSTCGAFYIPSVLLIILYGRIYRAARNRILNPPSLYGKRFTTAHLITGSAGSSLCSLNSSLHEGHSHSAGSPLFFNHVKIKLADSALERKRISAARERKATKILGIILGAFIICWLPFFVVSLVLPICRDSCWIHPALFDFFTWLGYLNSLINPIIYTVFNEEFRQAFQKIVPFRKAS
T8 sequence (P28222 whole entry): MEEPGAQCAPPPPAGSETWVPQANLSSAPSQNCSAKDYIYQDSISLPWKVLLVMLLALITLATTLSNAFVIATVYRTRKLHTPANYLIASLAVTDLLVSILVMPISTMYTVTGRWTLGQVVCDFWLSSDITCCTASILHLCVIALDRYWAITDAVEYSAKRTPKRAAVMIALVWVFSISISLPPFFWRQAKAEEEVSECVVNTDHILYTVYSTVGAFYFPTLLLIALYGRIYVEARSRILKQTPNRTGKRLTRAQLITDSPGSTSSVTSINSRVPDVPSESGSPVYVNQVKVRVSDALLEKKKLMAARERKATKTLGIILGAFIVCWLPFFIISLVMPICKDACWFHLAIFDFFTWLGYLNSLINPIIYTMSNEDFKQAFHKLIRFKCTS
T5 sequence (Q5BJF2 whole entry): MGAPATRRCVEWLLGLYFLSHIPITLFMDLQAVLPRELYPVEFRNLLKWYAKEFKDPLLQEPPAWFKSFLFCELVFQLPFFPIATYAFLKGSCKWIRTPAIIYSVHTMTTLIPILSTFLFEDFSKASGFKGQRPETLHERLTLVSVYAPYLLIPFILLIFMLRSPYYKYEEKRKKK
T1 sequence (Q01959 whole entry): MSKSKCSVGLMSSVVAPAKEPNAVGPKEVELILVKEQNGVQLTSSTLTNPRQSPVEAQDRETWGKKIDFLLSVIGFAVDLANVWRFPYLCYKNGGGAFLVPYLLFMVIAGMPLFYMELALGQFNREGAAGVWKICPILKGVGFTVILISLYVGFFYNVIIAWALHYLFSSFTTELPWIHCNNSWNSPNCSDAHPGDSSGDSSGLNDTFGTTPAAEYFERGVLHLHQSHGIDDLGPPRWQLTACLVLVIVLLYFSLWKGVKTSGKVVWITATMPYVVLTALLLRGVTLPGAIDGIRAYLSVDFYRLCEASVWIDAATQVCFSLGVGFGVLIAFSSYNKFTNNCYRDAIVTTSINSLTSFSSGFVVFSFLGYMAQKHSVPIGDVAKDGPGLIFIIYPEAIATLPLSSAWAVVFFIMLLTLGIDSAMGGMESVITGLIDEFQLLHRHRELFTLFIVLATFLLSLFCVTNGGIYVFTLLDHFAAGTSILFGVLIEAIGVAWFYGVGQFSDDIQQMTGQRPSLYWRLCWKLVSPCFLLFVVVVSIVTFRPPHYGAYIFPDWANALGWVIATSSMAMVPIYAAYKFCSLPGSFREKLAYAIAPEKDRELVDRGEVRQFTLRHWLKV
T6 sequence (P14416 whole entry): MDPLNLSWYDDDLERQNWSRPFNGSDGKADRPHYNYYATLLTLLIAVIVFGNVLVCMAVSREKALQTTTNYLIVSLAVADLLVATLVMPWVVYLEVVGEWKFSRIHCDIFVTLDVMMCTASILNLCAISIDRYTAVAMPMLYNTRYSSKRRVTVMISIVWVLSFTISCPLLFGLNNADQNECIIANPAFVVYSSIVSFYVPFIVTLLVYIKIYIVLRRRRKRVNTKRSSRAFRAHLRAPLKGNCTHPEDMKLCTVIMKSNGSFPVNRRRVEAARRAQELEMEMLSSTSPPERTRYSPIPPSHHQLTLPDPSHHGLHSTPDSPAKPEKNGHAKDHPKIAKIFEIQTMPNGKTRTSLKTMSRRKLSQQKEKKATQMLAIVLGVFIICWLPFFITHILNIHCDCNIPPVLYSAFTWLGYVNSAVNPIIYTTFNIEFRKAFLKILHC
T3 sequence (P50406 whole entry): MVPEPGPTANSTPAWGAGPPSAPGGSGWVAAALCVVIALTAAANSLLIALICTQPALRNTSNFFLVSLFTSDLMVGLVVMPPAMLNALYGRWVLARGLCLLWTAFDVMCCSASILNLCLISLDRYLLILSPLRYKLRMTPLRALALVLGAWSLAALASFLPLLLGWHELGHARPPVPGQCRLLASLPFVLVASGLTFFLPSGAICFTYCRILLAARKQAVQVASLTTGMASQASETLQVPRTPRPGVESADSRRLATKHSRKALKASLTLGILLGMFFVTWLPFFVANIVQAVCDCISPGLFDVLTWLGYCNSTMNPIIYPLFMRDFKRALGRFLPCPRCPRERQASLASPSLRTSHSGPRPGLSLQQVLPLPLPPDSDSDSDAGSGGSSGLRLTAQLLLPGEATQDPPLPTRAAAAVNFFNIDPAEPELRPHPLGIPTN
Chain of Muscarinic acetylcholine receptor M4 (Homo sapiens) (P08173 whole entry): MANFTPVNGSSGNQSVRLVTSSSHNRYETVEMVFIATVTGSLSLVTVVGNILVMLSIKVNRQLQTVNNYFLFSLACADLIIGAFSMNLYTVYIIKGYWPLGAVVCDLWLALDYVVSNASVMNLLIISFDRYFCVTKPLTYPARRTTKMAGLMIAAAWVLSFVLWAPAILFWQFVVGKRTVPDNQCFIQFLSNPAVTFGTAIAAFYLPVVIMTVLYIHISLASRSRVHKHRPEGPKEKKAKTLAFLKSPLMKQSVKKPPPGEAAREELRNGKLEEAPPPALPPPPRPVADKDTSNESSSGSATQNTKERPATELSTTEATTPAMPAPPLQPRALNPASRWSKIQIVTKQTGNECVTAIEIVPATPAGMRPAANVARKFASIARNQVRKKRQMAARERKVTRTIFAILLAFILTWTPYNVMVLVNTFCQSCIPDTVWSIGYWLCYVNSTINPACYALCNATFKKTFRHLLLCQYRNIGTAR
Chain of Muscarinic acetylcholine receptor M3 (Homo sapiens) (P20309 whole entry, looked up): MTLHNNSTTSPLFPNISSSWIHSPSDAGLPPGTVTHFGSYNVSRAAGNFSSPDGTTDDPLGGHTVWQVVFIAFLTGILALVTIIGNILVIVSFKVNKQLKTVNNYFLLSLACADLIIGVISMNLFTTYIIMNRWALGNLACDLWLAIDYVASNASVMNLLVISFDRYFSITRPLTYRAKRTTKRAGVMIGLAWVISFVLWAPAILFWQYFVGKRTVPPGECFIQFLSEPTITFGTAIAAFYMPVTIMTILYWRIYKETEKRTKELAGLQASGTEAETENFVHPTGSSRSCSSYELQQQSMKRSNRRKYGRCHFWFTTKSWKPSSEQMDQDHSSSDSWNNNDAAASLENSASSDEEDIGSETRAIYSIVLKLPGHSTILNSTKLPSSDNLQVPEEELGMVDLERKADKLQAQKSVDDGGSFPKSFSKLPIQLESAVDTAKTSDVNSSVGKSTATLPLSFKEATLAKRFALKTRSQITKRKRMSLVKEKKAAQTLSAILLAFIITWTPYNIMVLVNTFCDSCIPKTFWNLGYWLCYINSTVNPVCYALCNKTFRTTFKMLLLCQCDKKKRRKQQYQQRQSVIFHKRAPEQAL
Chain of 5-hydroxytryptamine receptor 7 (Homo sapiens) (P34969 whole entry): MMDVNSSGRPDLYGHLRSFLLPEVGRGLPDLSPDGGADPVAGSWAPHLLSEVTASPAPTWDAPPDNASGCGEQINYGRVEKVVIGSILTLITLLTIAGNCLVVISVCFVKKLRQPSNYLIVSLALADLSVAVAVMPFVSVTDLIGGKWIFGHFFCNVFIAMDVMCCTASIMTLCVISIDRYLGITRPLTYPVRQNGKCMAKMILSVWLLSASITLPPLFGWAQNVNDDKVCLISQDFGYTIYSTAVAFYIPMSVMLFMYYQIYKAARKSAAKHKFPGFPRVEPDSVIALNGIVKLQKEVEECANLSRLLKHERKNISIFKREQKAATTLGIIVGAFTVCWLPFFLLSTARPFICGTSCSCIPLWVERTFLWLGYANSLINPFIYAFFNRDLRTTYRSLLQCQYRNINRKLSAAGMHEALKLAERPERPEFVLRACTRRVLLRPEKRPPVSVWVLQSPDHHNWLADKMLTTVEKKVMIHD
Chain of 5-hydroxytryptamine receptor 1A (Homo sapiens) (P08908 whole entry): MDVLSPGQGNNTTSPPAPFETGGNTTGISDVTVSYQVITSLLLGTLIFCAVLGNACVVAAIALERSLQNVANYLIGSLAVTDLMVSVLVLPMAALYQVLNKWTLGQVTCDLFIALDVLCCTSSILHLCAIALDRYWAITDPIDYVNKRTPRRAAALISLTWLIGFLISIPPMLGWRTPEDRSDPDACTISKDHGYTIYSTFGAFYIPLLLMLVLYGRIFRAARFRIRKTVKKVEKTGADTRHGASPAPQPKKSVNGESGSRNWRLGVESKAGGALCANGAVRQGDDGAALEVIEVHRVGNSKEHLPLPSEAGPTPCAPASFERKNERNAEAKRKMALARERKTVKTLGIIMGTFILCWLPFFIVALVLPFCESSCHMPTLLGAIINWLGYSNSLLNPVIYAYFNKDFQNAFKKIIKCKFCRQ
Chain of Sigma non-opioid intracellular receptor 1 (Homo sapiens) (Q99720 whole entry): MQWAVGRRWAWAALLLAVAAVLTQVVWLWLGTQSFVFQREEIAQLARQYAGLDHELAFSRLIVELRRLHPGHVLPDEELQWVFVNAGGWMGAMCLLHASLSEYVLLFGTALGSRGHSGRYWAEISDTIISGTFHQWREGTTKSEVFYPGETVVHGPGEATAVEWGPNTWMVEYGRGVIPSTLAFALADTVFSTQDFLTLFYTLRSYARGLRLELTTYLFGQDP
Chain of 5-hydroxytryptamine receptor 1A (P08908 whole entry): as the sequence (P08908 whole entry) above

## CN(C)[C@@H]1CCN(c2cc(-c3ccccc3)nc3ccnn23)C1 [(R)-ZINC-3573]
[1]
  inhibition: 74.3%
[2]
  inhibition: 54.9%
[3]
  inhibition: 2.22%
[4]
  inhibition: 28.1%
[5]
  inhibition: 31.9%
[6]
  inhibition: 30.7%
[7]; read-out: Ki
  Ki: 0.748 µM
[8]
  inhibition: 11.3%
[9]
  inhibition: 12.3%
[10]
  inhibition: 28.8%
[11]; read-out: Ki
  Ki: 2.96 µM
[11]; read-out: pKi (converted)
  Ki: 2.88 µM
[12]
  inhibition: 34.3%
[13]
  inhibition: 16.7%
[14]
  inhibition: 20.4%
[15]
  inhibition: 39.3%
[16]; read-out: Ki
  Ki: 0.489 µM
[16]; read-out: pKi (converted)
  Ki: 0.479 µM
[17]
  inhibition: 32.6%
[18]
  inhibition: 13.8%
[19]
  inhibition: 5.27%
[20]
  inhibition: 21.3%
[21]
  inhibition: 37.3%
[22]
  inhibition: -3.76%
[23]
  inhibition: 10.2%
[24]
  inhibition: 21.8%
[25]
  inhibition: 76.6%
[26]
  inhibition: 38.6%
[27]
  inhibition: 7.75%
D(2) dopamine receptor [28]; read-out: Ki
  Ki: 0.369 µM
D(2) dopamine receptor [28]; read-out: pKi (converted)
  Ki: 0.355 µM
D(2) dopamine receptor [29]
  inhibition: 69.8%
[30]
  Ki: 1.94 µM
  pKi: 5.73
[31]
  Ki: 1.62 µM
[32]
  inhibition: 58.4%
[33]
  Ki: 3.24 µM
[34]
  inhibition: 28.6%
[35]
  inhibition: 64.8%
Rattus norvegicus
  inhibition: 11.6%
[36]
  inhibition: 16.3%
[37]
  inhibition: 20.1%
[38]
  inhibition: 11.7%
[39]; read-out: Ki
  Ki: 1.74 µM
[39]; read-out: pKi (converted)
  Ki: 1.7 µM
[40]
  inhibition: 6.36%
[41]
  inhibition: 40.5%
[42]
  inhibition: 14.4%
[43]
  inhibition: 12.7%
[44]
  inhibition: 45.4%
[45]
  inhibition: 52.5%
[46]
  inhibition: 13.6%
[47]
  inhibition: 38.9%
[48]
  inhibition: 7.26%
[49]
  inhibition: 58.9%
[50]
  inhibition: 32.9%
[51]
  inhibition: 82.4%
[52]
  inhibition: 4.09%
[53]; read-out: Ki
  Ki: 1.11 µM
[53]; read-out: pKi (converted)
  Ki: 1.1 µM

## CN(C)[C@H]1CCN(c2cc(-c3ccccc3)nc3ccnn23)C1 [(S)-ZINC-3573]
[1]
  inhibition: -1.89%
[2]
  inhibition: 21.5%
[3]
  inhibition: -3.16%
[4]
  inhibition: 39%
[5]
  inhibition: 30%
[6]
  inhibition: 4.16%
[7]; read-out: Ki
  Ki: 1.09 µM
[7]; read-out: pKi (converted)
  Ki: 1.08 µM
[8]
  inhibition: 9.93%
[9]
  inhibition: 7.57%
[10]
  inhibition: 34.4%
[11]; read-out: Ki
  Ki: 3.63 µM
[11]; read-out: pKi (converted)
  Ki: 3.55 µM
[12]
  inhibition: 2.89%
[13]
  inhibition: 33.3%
[14]
  inhibition: 33.5%
[15]
  inhibition: 16.4%
[16]; read-out: Ki
  Ki: 0.973 µM
[17]
  inhibition: 8.3%
[18]
  inhibition: 5.42%
[19]
  inhibition: 42.8%
[20]
  inhibition: 9.07%
[54]
  EC50: > 100 µM (not active)
[22]
  inhibition: 40.4%
[23]
  inhibition: 59.1%
[24]
  inhibition: 34.2%
[25]
  inhibition: 64.5%
[26]
  inhibition: 13.4%
[27]
  inhibition: 12.4%
D(2) dopamine receptor [29]
  inhibition: 2.85%
[32]
  inhibition: 63.2%
[34]
  inhibition: 22%
[35]
  inhibition: 19.3%
Rattus norvegicus
  inhibition: 2.83%
[36]
  inhibition: 23.5%
[37]
  inhibition: 26.6%
[38]
  inhibition: 29.4%
[55]
  EC50: > 100 µM (not active)
[39]; read-out: Ki
  Ki: 2.96 µM
[39]; read-out: pKi (converted)
  Ki: 2.88 µM
[40]
  inhibition: 3.36%
[41]
  inhibition: 16.4%
[42]
  inhibition: 27.4%
[43]
  inhibition: 18.9%
[44]
  inhibition: 2.02%
[45]
  inhibition: 4.88%
[46]
  inhibition: 6.22%
[56]; read-out: Ki
  Ki: 2.29 µM
[56]; read-out: pKi (converted)
  Ki: 2.11 µM
[49]
  inhibition: 69.1%
[50]
  inhibition: 40.2%
[51]
  inhibition: 65.1%
[52]
  inhibition: 2.83%
